Source: publication PMC5065612, “A small molecule inhibitor of mutant IDH2 rescues cardiomyopathy in a D-2-hydroxyglutaric aciduria type II mouse model” (Journal of Inherited Metabolic Disease, 2016)

Key:
[1] = target: T1, Idh2R140Q (mouse isocitrate dehydrogenase 2) (Mus musculus, UniProt P54071, R140Q); assay: 2HG production in culture medium of knock-in ES cells, LC-MS; assay type: cell-based
T1 construct: gene Idh2; Idh2R140Q knock-in mouse embryonic stem cells
T1 sequence (P54071 40-452 R140Q): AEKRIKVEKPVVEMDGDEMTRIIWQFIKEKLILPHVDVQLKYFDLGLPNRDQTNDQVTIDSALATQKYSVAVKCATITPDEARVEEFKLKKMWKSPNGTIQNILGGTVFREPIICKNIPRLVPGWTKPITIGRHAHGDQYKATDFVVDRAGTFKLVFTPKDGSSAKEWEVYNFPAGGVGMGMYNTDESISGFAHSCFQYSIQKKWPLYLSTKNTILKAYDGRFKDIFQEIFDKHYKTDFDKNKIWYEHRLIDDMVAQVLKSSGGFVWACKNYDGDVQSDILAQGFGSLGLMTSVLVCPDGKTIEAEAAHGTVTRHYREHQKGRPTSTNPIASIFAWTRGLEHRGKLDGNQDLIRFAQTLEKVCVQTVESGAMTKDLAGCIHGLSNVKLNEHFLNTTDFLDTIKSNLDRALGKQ

[2] = target: T2, IDH2R140Q (isocitrate dehydrogenase 2) (Homo sapiens, UniProt P48735, R140Q); assay: NADPH depletion end-point assay (diaphorase/resazurin), […] h preincubation, recombinant enzyme; assay type: biochemical
T2 construct: gene IDH2; IDH2R140Q homodimer, recombinant purified enzyme
T2 sequence (P48735 40-452 R140Q): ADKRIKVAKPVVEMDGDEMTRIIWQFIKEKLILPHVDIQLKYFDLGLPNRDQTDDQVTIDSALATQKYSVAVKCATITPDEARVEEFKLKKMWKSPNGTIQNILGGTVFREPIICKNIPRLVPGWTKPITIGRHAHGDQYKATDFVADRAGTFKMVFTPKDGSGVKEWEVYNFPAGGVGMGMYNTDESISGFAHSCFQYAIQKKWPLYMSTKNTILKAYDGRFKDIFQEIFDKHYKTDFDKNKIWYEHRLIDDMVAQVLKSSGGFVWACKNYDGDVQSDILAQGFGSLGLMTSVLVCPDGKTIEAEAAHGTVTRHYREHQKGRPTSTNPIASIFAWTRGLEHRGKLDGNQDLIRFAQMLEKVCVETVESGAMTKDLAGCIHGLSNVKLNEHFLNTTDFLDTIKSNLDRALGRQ

## CC(C)Nc1nc(Nc2ccnc(C(F)(F)F)c2)nc(-c2cccc(C(F)(F)F)n2)n1 [AGI-026]
[1]
  IC50: 5.4 ± 2.8 nM
[2]
  IC50: 4 ± 0.2 nM
